The values below come from ChEMBL document CHEMBL3862033 (J Med Chem, 2016).

A word on the inhibition: it is the share of the control response that was lost under treatment. One may read the Ki as a measure of affinity in units of concentration, obtained from inhibition or displacement.

Sequence of 5-hydroxytryptamine receptor 1E (Homo sapiens) (P28566 whole entry): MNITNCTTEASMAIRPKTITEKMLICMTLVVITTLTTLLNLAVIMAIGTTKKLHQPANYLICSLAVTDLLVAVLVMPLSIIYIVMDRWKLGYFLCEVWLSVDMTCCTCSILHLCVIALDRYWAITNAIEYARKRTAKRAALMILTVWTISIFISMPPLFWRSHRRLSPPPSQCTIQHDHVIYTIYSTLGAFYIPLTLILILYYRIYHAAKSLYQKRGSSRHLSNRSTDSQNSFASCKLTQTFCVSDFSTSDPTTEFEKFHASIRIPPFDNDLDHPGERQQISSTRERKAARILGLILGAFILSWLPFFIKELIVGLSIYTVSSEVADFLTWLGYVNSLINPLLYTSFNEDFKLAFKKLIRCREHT
Sequence of 5-hydroxytryptamine receptor 1D (Homo sapiens) (P28221 whole entry): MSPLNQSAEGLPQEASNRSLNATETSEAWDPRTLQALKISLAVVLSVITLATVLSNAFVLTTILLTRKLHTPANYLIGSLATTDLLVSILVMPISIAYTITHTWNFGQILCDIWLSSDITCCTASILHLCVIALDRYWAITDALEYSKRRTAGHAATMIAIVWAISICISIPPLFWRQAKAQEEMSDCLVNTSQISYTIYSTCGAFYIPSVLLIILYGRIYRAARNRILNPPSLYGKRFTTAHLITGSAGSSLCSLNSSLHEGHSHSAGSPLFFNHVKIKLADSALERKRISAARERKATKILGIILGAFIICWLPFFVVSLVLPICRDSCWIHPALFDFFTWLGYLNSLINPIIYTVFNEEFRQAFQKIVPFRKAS

The first test concerns the target T1, Adenosine receptor A3 (Mus musculus) (UniProt Q61618).
T1 sequence (whole entry): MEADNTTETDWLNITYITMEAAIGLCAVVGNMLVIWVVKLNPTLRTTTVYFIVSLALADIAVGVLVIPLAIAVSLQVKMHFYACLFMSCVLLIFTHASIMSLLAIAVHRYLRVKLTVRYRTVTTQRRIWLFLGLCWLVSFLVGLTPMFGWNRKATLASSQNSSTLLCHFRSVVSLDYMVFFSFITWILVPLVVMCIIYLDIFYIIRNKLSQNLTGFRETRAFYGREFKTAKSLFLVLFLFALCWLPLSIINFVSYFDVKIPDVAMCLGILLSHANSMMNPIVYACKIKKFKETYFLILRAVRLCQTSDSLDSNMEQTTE
Description: Agonist activity at recombinant mouse A3AR expressed in HEK293 cells assessed as inhibition of forskolin-stimulated cAMP accumulation at 10 uM after 15 mins relative to adenosine-5'-N-ethyluronamide. Type of test: functional, cell-based.
Conditions: not given
For orientation: Changes in cAMP serve as a functional read-out for many G protein-coupled receptors.
As for `COC(=O)[C@@]12C[C@@H]1[C@@H](n1cnc3c(NC(C4CC4)C4CC4)nc(Cl)nc31)[C@H](O)[C@@H]2O`, the Imax was 41.4%.
The same measure, in the same setting: for `CNC(=O)[C@@]12C[C@@H]1[C@@H](n1cnc3c(NC(C4CC4)C4CC4)nc(Cl)nc31)[C@H](O)[C@@H]2O` the value was 96.7%; for `CCOC(=O)[C@@]12C[C@@H]1[C@@H](n1cnc3c(NC(C4CC4)C4CC4)nc(Cl)nc31)[C@H](O)[C@@H]2O`, 26.3%.

The target in another test is T2, 5-hydroxytryptamine receptor 2C (Homo sapiens) (UniProt P28335).
T2 sequence (whole entry): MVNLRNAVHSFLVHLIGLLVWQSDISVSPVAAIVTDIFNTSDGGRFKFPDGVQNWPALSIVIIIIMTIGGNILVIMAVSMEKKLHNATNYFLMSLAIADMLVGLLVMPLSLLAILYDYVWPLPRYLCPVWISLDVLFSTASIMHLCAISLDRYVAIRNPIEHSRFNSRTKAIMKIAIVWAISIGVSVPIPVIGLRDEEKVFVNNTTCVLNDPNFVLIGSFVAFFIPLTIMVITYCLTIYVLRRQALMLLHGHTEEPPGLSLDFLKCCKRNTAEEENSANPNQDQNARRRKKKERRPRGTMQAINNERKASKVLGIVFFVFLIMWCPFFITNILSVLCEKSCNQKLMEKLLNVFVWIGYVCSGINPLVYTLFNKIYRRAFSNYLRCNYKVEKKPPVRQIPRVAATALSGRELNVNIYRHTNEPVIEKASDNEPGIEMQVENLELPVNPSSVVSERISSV
Description: Displacement of [3H]mesulergine from human 5-HT2CR expressed in Flp-In HEK cell membranes at 10 uM incubated for 90 mins under dark condition by microbeta scintillation counting method relative to control. Particulars: HEK293.
In the case of `COC(=O)[C@@]12C[C@@H]1[C@@H](n1cnc3c(NC(C4CC4)C4CC4)nc(Cl)nc31)[C@H](O)[C@@H]2O`, the inhibition is > 50%.
For `CNC(=O)[C@@]12C[C@@H]1[C@@H](n1cnc3c(NC(C4CC4)C4CC4)nc(Cl)nc31)[C@H](O)[C@@H]2O`, the inhibition was > 50%.
Still for that read-out and setting: then `OC[C@@]12C[C@@H]1[C@@H](n1cnc3c(NC(C4CC4)C4CC4)nc(Cl)nc31)[C@H](O)[C@@H]2O`, with > 50%; and `CCOC(=O)[C@@]12C[C@@H]1[C@@H](n1cnc3c(NC(C4CC4)C4CC4)nc(Cl)nc31)[C@H](O)[C@@H]2O`, with > 50%.

The target of the next test is T3, 5-hydroxytryptamine receptor 2B (Homo sapiens, UniProt P41595).
T3 sequence (P41595 whole entry): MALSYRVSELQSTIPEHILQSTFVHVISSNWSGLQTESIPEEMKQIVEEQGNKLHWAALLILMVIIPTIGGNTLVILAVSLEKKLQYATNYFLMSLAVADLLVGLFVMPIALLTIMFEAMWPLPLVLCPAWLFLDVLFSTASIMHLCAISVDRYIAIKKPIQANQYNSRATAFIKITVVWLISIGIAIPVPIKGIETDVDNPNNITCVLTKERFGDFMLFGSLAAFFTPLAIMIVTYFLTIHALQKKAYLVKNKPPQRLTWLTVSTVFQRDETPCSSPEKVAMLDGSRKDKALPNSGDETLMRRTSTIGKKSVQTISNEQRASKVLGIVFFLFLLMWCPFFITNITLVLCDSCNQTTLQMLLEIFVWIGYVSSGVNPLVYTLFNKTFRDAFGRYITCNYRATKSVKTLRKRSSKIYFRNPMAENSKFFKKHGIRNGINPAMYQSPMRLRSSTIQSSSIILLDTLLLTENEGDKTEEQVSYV
Assay: not given
To be noted: HEK293, at 10 µM.
In the case of `COC(=O)[C@@]12C[C@@H]1[C@@H](n1cnc3c(NC(C4CC4)C4CC4)nc(Cl)nc31)[C@H](O)[C@@H]2O`, the inhibition is > 50%.
Consider `CNC(=O)[C@@]12C[C@@H]1[C@@H](n1cnc3c(NC(C4CC4)C4CC4)nc(Cl)nc31)[C@H](O)[C@@H]2O`, for which the inhibition is > 50%.
On the same count and under the same terms, then `CCOC(=O)[C@@]12C[C@@H]1[C@@H](n1cnc3c(NC(C4CC4)C4CC4)nc(Cl)nc31)[C@H](O)[C@@H]2O`, with > 50%.

The target of another test is T3, 5-hydroxytryptamine receptor 2B.
Assay: not given
Type of test: functional, cell-based, HEK293.
Conditions: not given
Compound `COC(=O)[C@@]12C[C@@H]1[C@@H](n1cnc3c(NC(C4CC4)C4CC4)nc(Cl)nc31)[C@H](O)[C@@H]2O` had a Ki of 0.0032 µM.
The compound `CNC(=O)[C@@]12C[C@@H]1[C@@H](n1cnc3c(NC(C4CC4)C4CC4)nc(Cl)nc31)[C@H](O)[C@@H]2O` gave a Ki of 0.0044 µM.
Same read-out and setting: for `CCOC(=O)[C@@]12C[C@@H]1[C@@H](n1cnc3c(NC(C4CC4)C4CC4)nc(Cl)nc31)[C@H](O)[C@@H]2O` the value was 0.0018 µM.

Another test deals with 5-hydroxytryptamine receptor 5A (Homo sapiens) (UniProt P47898). The test can be described thus: Displacement of [3H]LSD from human 5-HT5A receptor expressed in Flp-In-CHO cell membranes incubated for 90 mins under dark condition by microbeta scintillation counting method relative to control. Set-up: concentration or dose not given beside the values.
Sequence of 5-hydroxytryptamine receptor 5A (Homo sapiens) (P47898 whole entry): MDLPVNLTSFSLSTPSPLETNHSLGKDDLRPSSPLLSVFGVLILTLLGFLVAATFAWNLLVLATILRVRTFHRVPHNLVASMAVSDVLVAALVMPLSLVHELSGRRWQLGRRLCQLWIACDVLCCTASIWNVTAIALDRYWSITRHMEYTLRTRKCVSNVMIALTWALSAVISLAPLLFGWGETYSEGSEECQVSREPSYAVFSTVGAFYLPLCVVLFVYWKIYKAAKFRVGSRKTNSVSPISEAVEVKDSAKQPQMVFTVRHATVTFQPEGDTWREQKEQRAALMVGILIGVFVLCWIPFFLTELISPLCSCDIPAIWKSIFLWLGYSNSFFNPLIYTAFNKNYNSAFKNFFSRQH
Conditions: not given
In general terms: In a radioligand displacement assay an active substance lowers the binding of a labelled ligand.
For `COC(=O)[C@@]12C[C@@H]1[C@@H](n1cnc3c(NC(C4CC4)C4CC4)nc(Cl)nc31)[C@H](O)[C@@H]2O`, the inhibition was < 50%.
Still for that read-out and setting: then `CNC(=O)[C@@]12C[C@@H]1[C@@H](n1cnc3c(NC(C4CC4)C4CC4)nc(Cl)nc31)[C@H](O)[C@@H]2O`, with < 50%; and `OC[C@@]12C[C@@H]1[C@@H](n1cnc3c(NC(C4CC4)C4CC4)nc(Cl)nc31)[C@H](O)[C@@H]2O`, with < 50%; and `CCOC(=O)[C@@]12C[C@@H]1[C@@H](n1cnc3c(NC(C4CC4)C4CC4)nc(Cl)nc31)[C@H](O)[C@@H]2O`, with < 50%.

Another test has as its target T4, 5-hydroxytryptamine receptor 3A (Homo sapiens) (UniProt P46098).
T4 sequence (whole entry): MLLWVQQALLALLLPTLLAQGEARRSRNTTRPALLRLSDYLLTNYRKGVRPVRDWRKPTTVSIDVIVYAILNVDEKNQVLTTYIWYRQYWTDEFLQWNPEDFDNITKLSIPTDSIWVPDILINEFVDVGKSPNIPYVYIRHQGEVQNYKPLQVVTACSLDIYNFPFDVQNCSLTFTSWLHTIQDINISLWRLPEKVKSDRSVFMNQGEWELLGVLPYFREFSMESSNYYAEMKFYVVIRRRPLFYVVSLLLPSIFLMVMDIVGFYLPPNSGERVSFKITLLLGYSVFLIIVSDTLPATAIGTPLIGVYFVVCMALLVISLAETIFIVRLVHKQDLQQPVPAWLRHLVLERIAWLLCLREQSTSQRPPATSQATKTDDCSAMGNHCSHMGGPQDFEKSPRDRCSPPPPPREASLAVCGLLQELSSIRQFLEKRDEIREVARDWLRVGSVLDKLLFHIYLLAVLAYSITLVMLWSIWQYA
The test can be described thus: Displacement of [3H]GR65630 from human 5-HT3 receptor expressed in HEK-T cell membranes at 10 uM incubated for 90 mins under dark condition by microbeta scintillation counting method relative to control.
Conditions: not given
Turning to `COC(=O)[C@@]12C[C@@H]1[C@@H](n1cnc3c(NC(C4CC4)C4CC4)nc(Cl)nc31)[C@H](O)[C@@H]2O`, the inhibition is < 50%.
`CNC(=O)[C@@]12C[C@@H]1[C@@H](n1cnc3c(NC(C4CC4)C4CC4)nc(Cl)nc31)[C@H](O)[C@@H]2O`: the inhibition is < 50%.
The same measure, in the same setting: for `OC[C@@]12C[C@@H]1[C@@H](n1cnc3c(NC(C4CC4)C4CC4)nc(Cl)nc31)[C@H](O)[C@@H]2O` the value was < 50%; for `CCOC(=O)[C@@]12C[C@@H]1[C@@H](n1cnc3c(NC(C4CC4)C4CC4)nc(Cl)nc31)[C@H](O)[C@@H]2O`, < 50%.

The next test concerns the target 5-hydroxytryptamine receptor 1D (Homo sapiens) (UniProt P28221). Description: Displacement of [3H]5-CT from human 5-HT1D receptor expressed in HEK-T cell membranes at 10 uM incubated for 90 mins under dark condition by microbeta scintillation counting method relative to control.
Conditions: not given
Take `COC(=O)[C@@]12C[C@@H]1[C@@H](n1cnc3c(NC(C4CC4)C4CC4)nc(Cl)nc31)[C@H](O)[C@@H]2O`: the inhibition was < 50%.
Still for that read-out and setting: for `CNC(=O)[C@@]12C[C@@H]1[C@@H](n1cnc3c(NC(C4CC4)C4CC4)nc(Cl)nc31)[C@H](O)[C@@H]2O` the value was < 50%.
Same read-out and setting: then `OC[C@@]12C[C@@H]1[C@@H](n1cnc3c(NC(C4CC4)C4CC4)nc(Cl)nc31)[C@H](O)[C@@H]2O`, with < 50%.
Still for that read-out and setting: for `CCOC(=O)[C@@]12C[C@@H]1[C@@H](n1cnc3c(NC(C4CC4)C4CC4)nc(Cl)nc31)[C@H](O)[C@@H]2O` the value was < 50%.

A further test addresses 5-hydroxytryptamine receptor 1E (Homo sapiens) (UniProt P28566). Description: Displacement of [3H]5-HT from human 5-HT1E receptor expressed in HEK cell membranes at 10 uM incubated for 90 mins under dark condition by microbeta scintillation counting method relative to control. Particulars: HEK293.
For the compound `COC(=O)[C@@]12C[C@@H]1[C@@H](n1cnc3c(NC(C4CC4)C4CC4)nc(Cl)nc31)[C@H](O)[C@@H]2O`, the inhibition was < 50%.
On the same count and under the same terms, for `CNC(=O)[C@@]12C[C@@H]1[C@@H](n1cnc3c(NC(C4CC4)C4CC4)nc(Cl)nc31)[C@H](O)[C@@H]2O` the value was < 50%; for `OC[C@@]12C[C@@H]1[C@@H](n1cnc3c(NC(C4CC4)C4CC4)nc(Cl)nc31)[C@H](O)[C@@H]2O`, < 50%.
Same read-out and setting: then `CCOC(=O)[C@@]12C[C@@H]1[C@@H](n1cnc3c(NC(C4CC4)C4CC4)nc(Cl)nc31)[C@H](O)[C@@H]2O`, with < 50%.

Another test addresses T5, 5-hydroxytryptamine receptor 2C (Homo sapiens, UniProt P28335).
T5 sequence (P28335 whole entry): T2 sequence (whole entry)
The test can be described thus: Antagonist activity at human 5-HT2CR expressed in Flp-In HEK cells assessed as inhibition of serotonin induced calcium mobilization preincubated for 5 to 10 mins followed 5-Ht addition by Fluo-4 dye based FLIPR assay. Type of test: functional, cell-based, HEK293.
Conditions: not given
Turning to `COC(=O)[C@@]12C[C@@H]1[C@@H](n1cnc3c(NC(C4CC4)C4CC4)nc(Cl)nc31)[C@H](O)[C@@H]2O`, the inhibition constant Ki came out at 0.0041 µM.
Same read-out and setting: then `CNC(=O)[C@@]12C[C@@H]1[C@@H](n1cnc3c(NC(C4CC4)C4CC4)nc(Cl)nc31)[C@H](O)[C@@H]2O`, with 0.752 µM; and `OC[C@@]12C[C@@H]1[C@@H](n1cnc3c(NC(C4CC4)C4CC4)nc(Cl)nc31)[C@H](O)[C@@H]2O`, with 0.337 µM; and `CCOC(=O)[C@@]12C[C@@H]1[C@@H](n1cnc3c(NC(C4CC4)C4CC4)nc(Cl)nc31)[C@H](O)[C@@H]2O`, with 0.0039 µM.

A further test addresses T3, 5-hydroxytryptamine receptor 2B. The test can be described thus: biochemical.
Conditions: not given
Type of test: cell-based, HEK293.
Consider `COC(=O)[C@@]12C[C@@H]1[C@@H](n1cnc3c(NC(C4CC4)C4CC4)nc(Cl)nc31)[C@H](O)[C@@H]2O`, for which the Ki was 0.019 µM.
The compound `CNC(=O)[C@@]12C[C@@H]1[C@@H](n1cnc3c(NC(C4CC4)C4CC4)nc(Cl)nc31)[C@H](O)[C@@H]2O` returned a Ki of 0.023 µM.
Still for that read-out and setting: for `CCOC(=O)[C@@]12C[C@@H]1[C@@H](n1cnc3c(NC(C4CC4)C4CC4)nc(Cl)nc31)[C@H](O)[C@@H]2O` the value was 0.015 µM.

The next test deals with T6, Adenosine receptor A3 (Homo sapiens, UniProt P0DMS8).
T6 sequence (P0DMS8 whole entry): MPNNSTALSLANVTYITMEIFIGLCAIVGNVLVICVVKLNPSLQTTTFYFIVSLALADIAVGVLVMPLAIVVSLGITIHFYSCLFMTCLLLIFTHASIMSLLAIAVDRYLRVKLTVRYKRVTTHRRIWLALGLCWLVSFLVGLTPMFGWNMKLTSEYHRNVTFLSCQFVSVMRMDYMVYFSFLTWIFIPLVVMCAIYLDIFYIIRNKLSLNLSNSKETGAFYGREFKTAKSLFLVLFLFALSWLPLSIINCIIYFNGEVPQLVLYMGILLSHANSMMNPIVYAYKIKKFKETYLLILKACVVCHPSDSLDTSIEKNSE
The test can be described thus: Displacement of [125l]N 6-(4-amino-3-iodobenzyl)adenosine-5'-N-methyluronamide from recombinant human A3AR expressed in CHO cell membranes after 60 mins by gamma counting method.
Conditions: not given
With `COC(=O)[C@@]12C[C@@H]1[C@@H](n1cnc3c(NC(C4CC4)C4CC4)nc(Cl)nc31)[C@H](O)[C@@H]2O`, the Ki amounted to 0.766 µM.
The same measure, in the same setting: for `CNC(=O)[C@@]12C[C@@H]1[C@@H](n1cnc3c(NC(C4CC4)C4CC4)nc(Cl)nc31)[C@H](O)[C@@H]2O` the value was 0.034 µM; for `OC[C@@]12C[C@@H]1[C@@H](n1cnc3c(NC(C4CC4)C4CC4)nc(Cl)nc31)[C@H](O)[C@@H]2O`, 1.6 µM; for `CCOC(=O)[C@@]12C[C@@H]1[C@@H](n1cnc3c(NC(C4CC4)C4CC4)nc(Cl)nc31)[C@H](O)[C@@H]2O`, 0.236 µM.
